# Molecular target: [^3H]gabapentin site in porcine cortical membranes (Sus scrofa, UniProt O77773)
# Test: [3H]gabapentin binding site competition in porcine cortical membranes
# Conditions: read-out: IC50 arithmetic mean (N = 3) ± S.E.M., binding affinity for the [3H]gabapentin site, mean of n = 3 ± S.E.M.
# [^3H]gabapentin site in porcine cortical membranes, sequence (O77773 25-1091): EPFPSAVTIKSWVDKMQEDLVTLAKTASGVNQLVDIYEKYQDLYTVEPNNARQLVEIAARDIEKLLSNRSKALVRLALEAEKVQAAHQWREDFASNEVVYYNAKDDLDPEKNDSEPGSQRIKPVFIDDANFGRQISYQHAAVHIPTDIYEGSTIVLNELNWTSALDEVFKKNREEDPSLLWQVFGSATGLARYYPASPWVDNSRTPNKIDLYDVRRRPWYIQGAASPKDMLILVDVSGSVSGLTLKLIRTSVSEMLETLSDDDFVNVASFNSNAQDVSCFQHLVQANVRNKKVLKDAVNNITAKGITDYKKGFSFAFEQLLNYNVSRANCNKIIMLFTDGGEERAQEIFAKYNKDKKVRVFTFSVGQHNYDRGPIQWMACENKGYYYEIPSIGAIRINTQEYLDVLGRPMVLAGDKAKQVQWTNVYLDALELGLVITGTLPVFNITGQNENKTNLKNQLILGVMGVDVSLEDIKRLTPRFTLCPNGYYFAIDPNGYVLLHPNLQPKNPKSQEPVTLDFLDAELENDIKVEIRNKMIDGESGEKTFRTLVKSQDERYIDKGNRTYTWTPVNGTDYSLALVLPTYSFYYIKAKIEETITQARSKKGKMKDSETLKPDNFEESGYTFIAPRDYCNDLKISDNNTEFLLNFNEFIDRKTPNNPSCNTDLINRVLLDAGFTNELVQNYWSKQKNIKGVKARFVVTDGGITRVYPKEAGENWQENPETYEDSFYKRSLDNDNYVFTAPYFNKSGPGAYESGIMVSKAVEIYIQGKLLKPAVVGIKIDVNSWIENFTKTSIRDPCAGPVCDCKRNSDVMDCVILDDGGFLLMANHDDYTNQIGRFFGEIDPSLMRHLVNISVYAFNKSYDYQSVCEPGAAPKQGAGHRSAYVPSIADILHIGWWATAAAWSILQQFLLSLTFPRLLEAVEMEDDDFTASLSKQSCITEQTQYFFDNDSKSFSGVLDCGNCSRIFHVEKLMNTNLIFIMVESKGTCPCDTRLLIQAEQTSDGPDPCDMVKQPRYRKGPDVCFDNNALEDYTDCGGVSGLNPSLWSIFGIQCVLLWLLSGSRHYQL
row,Structure (SMILES),IC50
1,CSCC[C@H](N)C(=O)O [L-Methionine],49.6 ± 10 nM
2,CC(C)[C@H](N)C(=O)O [L-Valine],330 ± 18 nM
3,CC[C@@H](C)[C@H](N)C(=O)O [L-Allo-Isoleucine],32.8 ± 6 nM
4,CC[C@H](C)[C@H](N)C(=O)O [L-Isoleucine],68.8 ± 1.9 nM
5,CC(C)C[C@H](N)C(=O)O [L-Leucine],61.3 ± 20.9 nM
6,N[C@@H](Cc1ccccc1)C(=O)O [L-Phenylalanine],351 ± 89 nM
7,CCCC[C@H](N)C(=O)O [L-Norleucine],23.6 ± 6.7 nM
